From patent US20250312462A1, “PAK1 DEGRADERS AND METHODS OF USE THEREOF” (INSTITUTE FOR CANCER RESEARCH D/B/A THE RESEARCH INSTITUTE …, priority 2022, published 2025)

Assays:
Assay in all cases: KINOMEscan
[1] = biological target: GSK3A (Homo sapiens, UniProt P49840); details: read-out: Percent Control
Procedure: (§1) The kinase engagement assay (KINOMEscan®) was performed by DiscoverX assessing binding abilities toward a set of kinases.

[2] = biological target: ERK4 (Homo sapiens, UniProt P31152); details: read-out: Percent Control
Procedure: as §1

[3] = biological target: PKMYT1 (Homo sapiens, UniProt Q99640); details: read-out: Percent Control
Procedure: as §1

[4] = biological target: AKT3 (Homo sapiens, UniProt Q9Y243); details: read-out: Percent Control
Procedure: as §1

[5] = biological target: CLK1 (Homo sapiens, UniProt P49759); details: read-out: Percent Control
Procedure: as §1

[6] = biological target: MET(M1250T) (Homo sapiens, UniProt P08581, M1250T); details: read-out: Percent Control
Procedure: as §1

[7] = biological target: NEK5 (Homo sapiens, UniProt Q6P3R8); details: read-out: Percent Control
Procedure: as §1

[8] = biological target: RIPK1 (Homo sapiens, UniProt Q13546); details: read-out: Percent Control
Procedure: as §1

[9] = biological target: HIPK4 (Homo sapiens, UniProt Q8NE63); details: read-out: Percent Control
Procedure: as §1

[10] = biological target: LIMK2 (Homo sapiens, UniProt P53671); details: read-out: Percent Control
Procedure: as §1

[11] = biological target: CSK (Homo sapiens, UniProt P41240); details: read-out: Percent Control
Procedure: as §1

[12] = biological target: EGFR(L858R) (Homo sapiens, UniProt P00533, L858R); details: read-out: Percent Control
Procedure: as §1

[13] = biological target: EPHB2 (Homo sapiens, UniProt P29323); details: read-out: Percent Control
Procedure: as §1

[14] = biological target: ABL1(F317L)-nonphosphorylated (Homo sapiens, UniProt P00519, F317L); details: read-out: Percent Control
Procedure: as §1

[15] = biological target: DCAMKL1 (Homo sapiens, UniProt O15075); details: read-out: Percent Control
Procedure: as §1

[16] = biological target: EGFR(L747-T751del, Sins) (Homo sapiens, UniProt P00533, DEL747-750/T751S); details: read-out: Percent Control
Procedure: as §1

[17] = biological target: BMPR1B (Homo sapiens, UniProt O00238); details: read-out: Percent Control
Procedure: as §1

[18] = biological target: FES (Homo sapiens, UniProt P07332); details: read-out: Percent Control
Procedure: as §1

[19] = biological target: HCK (Homo sapiens, UniProt P08631); details: read-out: Percent Control
Procedure: as §1

[20] = biological target: PIK3C2B (Homo sapiens, UniProt O00750); details: read-out: Percent Control
Procedure: as §1

[21] = biological target: PKAC-alpha (Homo sapiens, UniProt P17612); details: read-out: Percent Control
Procedure: as §1

[22] = biological target: TXK (Homo sapiens, UniProt P42681); details: read-out: Percent Control
Procedure: as §1

[23] = test system: FLT3(ITD, F691L); details: 10 μM
Procedure: as §1

[24] = biological target: MAP3K4 (Homo sapiens, UniProt Q9Y6R4); details: read-out: Percent Control
Procedure: as §1

[25] = biological target: PIK3C2G (Homo sapiens, UniProt O75747); details: read-out: Percent Control
Procedure: as §1

[26] = biological target: MEK2 (Homo sapiens, UniProt P36507); details: read-out: Percent Control
Procedure: as §1

[27] = biological target: PCTK1 (Homo sapiens, UniProt Q00536); details: read-out: Percent Control
Procedure: as §1

[28] = biological target: BMPR1A (Homo sapiens, UniProt P36894); details: read-out: Percent Control
Procedure: as §1

[29] = biological target: EPHB1 (Homo sapiens, UniProt P54762); details: read-out: Percent Control
Procedure: as §1

[30] = biological target: LOK (Homo sapiens, UniProt O94804); details: read-out: Percent Control
Procedure: as §1

[31] = biological target: MAP3K15 (Homo sapiens, UniProt Q6ZN16); details: read-out: Percent Control
Procedure: as §1

[32] = biological target: ABL1(F317I)-phosphorylated (Homo sapiens, UniProt P00519, F317I); details: read-out: Percent Control
Procedure: as §1

[33] = biological target: ABL1(Y253F)-phosphorylated (Homo sapiens, UniProt P00519, Y253F); details: read-out: Percent Control
Procedure: as §1

[34] = biological target: BMPR2 (Homo sapiens, UniProt Q13873); details: read-out: Percent Control
Procedure: as §1

[35] = biological target: CDK4-cyclinD3 (Homo sapiens, UniProt P11802); details: read-out: Percent Control
Procedure: as §1

[36] = biological target: PIK3CA(I800L) (Homo sapiens, UniProt P42336, I800L); details: read-out: Percent Control
Procedure: as §1

[37] = biological target: TBK1 (Homo sapiens, UniProt Q9UHD2); details: read-out: Percent Control
Procedure: as §1

BMPR1A, sequence (P36894 24-532): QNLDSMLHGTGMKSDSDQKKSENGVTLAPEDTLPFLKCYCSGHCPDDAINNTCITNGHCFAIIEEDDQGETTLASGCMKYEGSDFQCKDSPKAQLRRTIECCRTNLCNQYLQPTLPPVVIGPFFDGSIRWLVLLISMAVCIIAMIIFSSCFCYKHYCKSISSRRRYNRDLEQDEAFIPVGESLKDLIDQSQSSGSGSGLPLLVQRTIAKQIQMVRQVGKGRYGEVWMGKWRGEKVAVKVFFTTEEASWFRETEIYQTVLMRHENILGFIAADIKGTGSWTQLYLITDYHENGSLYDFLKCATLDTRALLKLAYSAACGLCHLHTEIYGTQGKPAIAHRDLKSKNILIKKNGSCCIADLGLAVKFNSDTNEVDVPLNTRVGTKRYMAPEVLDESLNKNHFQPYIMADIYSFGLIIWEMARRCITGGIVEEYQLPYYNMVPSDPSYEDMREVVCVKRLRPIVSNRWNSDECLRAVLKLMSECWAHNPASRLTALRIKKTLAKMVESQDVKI
AKT3, sequence (Q9Y243 whole entry): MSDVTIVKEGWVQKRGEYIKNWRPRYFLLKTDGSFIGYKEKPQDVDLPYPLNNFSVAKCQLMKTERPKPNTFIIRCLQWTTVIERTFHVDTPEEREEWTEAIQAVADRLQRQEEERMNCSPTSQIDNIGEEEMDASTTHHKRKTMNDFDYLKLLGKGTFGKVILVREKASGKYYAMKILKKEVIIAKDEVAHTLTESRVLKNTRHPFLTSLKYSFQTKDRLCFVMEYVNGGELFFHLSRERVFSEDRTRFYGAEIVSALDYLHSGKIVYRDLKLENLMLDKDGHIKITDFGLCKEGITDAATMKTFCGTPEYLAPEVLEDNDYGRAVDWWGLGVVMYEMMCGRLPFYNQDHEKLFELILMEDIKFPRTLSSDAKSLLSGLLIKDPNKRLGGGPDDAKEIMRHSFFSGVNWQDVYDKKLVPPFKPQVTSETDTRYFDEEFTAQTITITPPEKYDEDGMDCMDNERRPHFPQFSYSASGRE
EGFR(L858R), sequence (P00533 25-1210 L858R): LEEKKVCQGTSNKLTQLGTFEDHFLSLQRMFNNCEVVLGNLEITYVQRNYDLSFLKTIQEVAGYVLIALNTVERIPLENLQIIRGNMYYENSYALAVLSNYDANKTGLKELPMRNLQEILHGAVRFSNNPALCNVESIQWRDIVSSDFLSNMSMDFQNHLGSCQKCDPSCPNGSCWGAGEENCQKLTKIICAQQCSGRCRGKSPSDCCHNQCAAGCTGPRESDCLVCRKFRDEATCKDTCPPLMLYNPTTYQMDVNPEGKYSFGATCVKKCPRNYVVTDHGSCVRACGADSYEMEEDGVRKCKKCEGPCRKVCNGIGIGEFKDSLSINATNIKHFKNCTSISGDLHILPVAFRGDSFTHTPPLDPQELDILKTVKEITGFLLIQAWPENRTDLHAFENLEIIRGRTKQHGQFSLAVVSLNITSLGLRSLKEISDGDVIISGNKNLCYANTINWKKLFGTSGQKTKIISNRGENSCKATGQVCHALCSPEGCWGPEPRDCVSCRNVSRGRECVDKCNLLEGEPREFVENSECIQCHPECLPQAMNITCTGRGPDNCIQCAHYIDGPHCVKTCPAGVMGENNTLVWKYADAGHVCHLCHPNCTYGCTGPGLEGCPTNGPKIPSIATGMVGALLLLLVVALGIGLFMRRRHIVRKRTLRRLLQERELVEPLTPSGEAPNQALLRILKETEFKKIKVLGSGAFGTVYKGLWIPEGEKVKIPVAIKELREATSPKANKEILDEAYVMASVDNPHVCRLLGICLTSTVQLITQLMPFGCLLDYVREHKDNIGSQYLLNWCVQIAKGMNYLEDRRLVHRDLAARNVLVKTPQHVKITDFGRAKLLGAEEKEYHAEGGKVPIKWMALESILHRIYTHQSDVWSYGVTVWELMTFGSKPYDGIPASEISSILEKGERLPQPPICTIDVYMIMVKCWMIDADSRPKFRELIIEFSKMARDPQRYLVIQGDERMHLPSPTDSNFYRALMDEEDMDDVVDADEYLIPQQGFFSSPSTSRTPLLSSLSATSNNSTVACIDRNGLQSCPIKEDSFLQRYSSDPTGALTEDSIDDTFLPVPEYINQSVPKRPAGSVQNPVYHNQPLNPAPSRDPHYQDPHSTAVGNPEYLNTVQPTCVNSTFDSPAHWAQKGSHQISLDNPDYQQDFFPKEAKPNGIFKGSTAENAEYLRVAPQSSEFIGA
RIPK1, sequence (Q13546 whole entry): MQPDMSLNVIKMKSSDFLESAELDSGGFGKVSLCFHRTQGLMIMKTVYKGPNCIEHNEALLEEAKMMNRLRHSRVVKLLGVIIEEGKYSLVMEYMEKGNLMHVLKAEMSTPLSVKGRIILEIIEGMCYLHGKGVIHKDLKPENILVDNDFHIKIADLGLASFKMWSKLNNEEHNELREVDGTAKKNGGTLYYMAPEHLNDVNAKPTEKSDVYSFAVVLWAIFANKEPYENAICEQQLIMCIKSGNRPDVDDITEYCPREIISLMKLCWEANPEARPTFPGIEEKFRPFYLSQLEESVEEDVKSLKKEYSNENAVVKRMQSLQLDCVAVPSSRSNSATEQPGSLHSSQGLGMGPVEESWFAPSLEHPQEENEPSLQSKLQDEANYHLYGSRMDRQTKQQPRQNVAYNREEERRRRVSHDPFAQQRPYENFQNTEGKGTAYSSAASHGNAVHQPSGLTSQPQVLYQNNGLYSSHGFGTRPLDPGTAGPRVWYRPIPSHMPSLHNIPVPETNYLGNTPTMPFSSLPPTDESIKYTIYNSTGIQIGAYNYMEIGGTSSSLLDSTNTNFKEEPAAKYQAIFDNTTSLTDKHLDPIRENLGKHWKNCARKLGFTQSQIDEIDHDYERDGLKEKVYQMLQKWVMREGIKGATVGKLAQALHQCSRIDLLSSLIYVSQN
LOK, sequence (O94804 whole entry): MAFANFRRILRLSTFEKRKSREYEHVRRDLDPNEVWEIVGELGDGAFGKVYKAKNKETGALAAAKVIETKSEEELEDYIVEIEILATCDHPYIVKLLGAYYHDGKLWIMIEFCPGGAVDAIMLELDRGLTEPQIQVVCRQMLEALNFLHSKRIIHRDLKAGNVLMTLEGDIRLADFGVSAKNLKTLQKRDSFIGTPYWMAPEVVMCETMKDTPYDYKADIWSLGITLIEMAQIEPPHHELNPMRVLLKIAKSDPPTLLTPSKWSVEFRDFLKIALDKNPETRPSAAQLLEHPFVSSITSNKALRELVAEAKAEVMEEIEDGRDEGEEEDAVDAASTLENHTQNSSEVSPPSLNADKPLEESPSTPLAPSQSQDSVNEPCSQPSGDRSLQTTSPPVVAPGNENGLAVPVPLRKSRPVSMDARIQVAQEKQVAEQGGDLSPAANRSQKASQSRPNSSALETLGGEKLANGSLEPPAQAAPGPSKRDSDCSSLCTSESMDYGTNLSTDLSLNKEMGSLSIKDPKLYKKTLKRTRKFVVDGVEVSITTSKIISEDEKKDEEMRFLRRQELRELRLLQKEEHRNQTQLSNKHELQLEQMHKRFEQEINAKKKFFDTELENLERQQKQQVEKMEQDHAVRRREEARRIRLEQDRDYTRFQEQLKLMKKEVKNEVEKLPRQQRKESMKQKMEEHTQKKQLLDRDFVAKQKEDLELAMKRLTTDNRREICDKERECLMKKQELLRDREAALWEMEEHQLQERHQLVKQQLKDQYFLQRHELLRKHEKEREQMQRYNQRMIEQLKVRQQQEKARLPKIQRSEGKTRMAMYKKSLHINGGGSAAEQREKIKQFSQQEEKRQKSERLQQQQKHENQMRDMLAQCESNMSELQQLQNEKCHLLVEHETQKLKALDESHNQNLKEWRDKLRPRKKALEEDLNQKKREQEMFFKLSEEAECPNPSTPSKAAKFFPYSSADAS
HCK, sequence (P08631 whole entry): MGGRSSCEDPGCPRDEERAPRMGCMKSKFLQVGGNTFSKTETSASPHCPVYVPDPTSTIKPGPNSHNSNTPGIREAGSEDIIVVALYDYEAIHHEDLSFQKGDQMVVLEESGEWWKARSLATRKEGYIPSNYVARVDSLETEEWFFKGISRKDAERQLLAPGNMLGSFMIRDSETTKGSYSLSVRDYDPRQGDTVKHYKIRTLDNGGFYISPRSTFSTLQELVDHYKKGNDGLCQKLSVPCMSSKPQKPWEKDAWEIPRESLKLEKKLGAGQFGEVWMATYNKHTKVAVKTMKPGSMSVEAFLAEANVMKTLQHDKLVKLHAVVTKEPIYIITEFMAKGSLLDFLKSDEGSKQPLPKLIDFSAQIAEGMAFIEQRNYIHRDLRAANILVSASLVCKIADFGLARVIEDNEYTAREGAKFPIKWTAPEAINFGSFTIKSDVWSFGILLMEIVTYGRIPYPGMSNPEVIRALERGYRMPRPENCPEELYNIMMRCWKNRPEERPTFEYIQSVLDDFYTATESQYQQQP
PKMYT1, sequence (Q99640 whole entry): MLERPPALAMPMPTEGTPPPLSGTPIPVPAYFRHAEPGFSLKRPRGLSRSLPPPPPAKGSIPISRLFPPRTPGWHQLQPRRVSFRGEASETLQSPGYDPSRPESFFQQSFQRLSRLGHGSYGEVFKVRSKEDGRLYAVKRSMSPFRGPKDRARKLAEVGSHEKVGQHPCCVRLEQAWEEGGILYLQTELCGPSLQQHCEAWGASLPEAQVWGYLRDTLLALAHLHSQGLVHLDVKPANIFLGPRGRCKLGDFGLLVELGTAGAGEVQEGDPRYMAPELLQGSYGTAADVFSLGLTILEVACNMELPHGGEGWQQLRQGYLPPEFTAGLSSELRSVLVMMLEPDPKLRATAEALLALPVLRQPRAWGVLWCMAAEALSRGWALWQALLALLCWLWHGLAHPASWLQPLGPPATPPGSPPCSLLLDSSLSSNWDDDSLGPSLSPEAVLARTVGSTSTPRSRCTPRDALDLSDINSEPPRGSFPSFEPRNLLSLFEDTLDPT

**Q.** How did the remaining binding at 10 µM [1] turn out when `O=C1CCC(N2C(=O)c3cccc(NCCCCCCCCNC(=O)N4CC[C@H](NC5=Nc6cc(F)ccc6N(CC(F)F)c6ccc(Cl)cc65)C4)c3C2=O)C(=O)N1` (stereo partly drawn) [BJG-05-039, (3S)-3-((2-Chloro-5-(2,2-difluoroethyl)-8-fluoro-5H-dibenzo[b,e][1,4]diazepin-11-yl)amino)-N-(8-((2-(2,6-dioxopiperidin-3-yl)-1,3-dioxoisoindolin-4-yl)amino)octyl)pyrrolidine-1-carboxamide] was run?
**A.** Its remaining binding at 10 µM is 50%.

**Q.** What about the remaining binding at 10 µM [2] of the same compound?
**A.** Its remaining binding at 10 µM is 52%.

**Q.** And the remaining binding at 10 µM [3]?
**A.** Its remaining binding at 10 µM is 54%.

**Q.** What about the remaining binding at 10 µM [4] of the same compound?
**A.** Its remaining binding at 10 µM is 57%.

**Q.** What about the remaining binding at 10 µM [5] of the same compound?
**A.** The remaining binding at 10 µM was 57%.

**Q.** What about the remaining binding at 10 µM [6] of the same compound?
**A.** Its remaining binding at 10 µM is 61%.

**Q.** What about the remaining binding at 10 µM [7] of the same compound?
**A.** The remaining binding at 10 µM was 65%.

**Q.** What about the remaining binding at 10 µM [8] of the same compound?
**A.** Its remaining binding at 10 µM is 65%.

**Q.** And the remaining binding at 10 µM [9]?
**A.** Its remaining binding at 10 µM is 67%.

**Q.** And the remaining binding at 10 µM [10]?
**A.** The remaining binding at 10 µM was 72%.

**Q.** What about the remaining binding at 10 µM [11] of the same compound?
**A.** The remaining binding at 10 µM was 74%.

**Q.** And the remaining binding at 10 µM [12]?
**A.** The remaining binding at 10 µM was 74%.

**Q.** What about the remaining binding at 10 µM [13] of the same compound?
**A.** The remaining binding at 10 µM was 74%.

**Q.** And the remaining binding at 10 µM [14]?
**A.** Its remaining binding at 10 µM is 77%.

**Q.** And the remaining binding at 10 µM [15]?
**A.** The remaining binding at 10 µM was 77%.

**Q.** And the remaining binding at 10 µM [16]?
**A.** The remaining binding at 10 µM was 80%.

**Q.** And the remaining binding at 10 µM [17]?
**A.** The remaining binding at 10 µM was 85%.

**Q.** What about the remaining binding at 10 µM [18] of the same compound?
**A.** Its remaining binding at 10 µM is 86%.

**Q.** What about the remaining binding at 10 µM [19] of the same compound?
**A.** The remaining binding at 10 µM was 90%.

**Q.** What about the remaining binding at 10 µM [20] of the same compound?
**A.** The remaining binding at 10 µM was 90%.

**Q.** What about the remaining binding at 10 µM [21] of the same compound?
**A.** Its remaining binding at 10 µM is 90%.

**Q.** And the remaining binding at 10 µM [22]?
**A.** Its remaining binding at 10 µM is 90%.

**Q.** And the “Percent Control” value [23]?
**A.** Its value is 94.

**Q.** And the remaining binding at 10 µM [24]?
**A.** The remaining binding at 10 µM was 95%.

**Q.** And the remaining binding at 10 µM [25]?
**A.** The remaining binding at 10 µM was 95%.

**Q.** What about the remaining binding at 10 µM [26] of the same compound?
**A.** Its remaining binding at 10 µM is 96%.

**Q.** And the remaining binding at 10 µM [27]?
**A.** Its remaining binding at 10 µM is 97%.

**Q.** What about the remaining binding at 10 µM [28] of the same compound?
**A.** The remaining binding at 10 µM was 98%.

**Q.** And the remaining binding at 10 µM [29]?
**A.** The remaining binding at 10 µM was 98%.

**Q.** And the remaining binding at 10 µM [30]?
**A.** The remaining binding at 10 µM was 98%.

**Q.** And the remaining binding at 10 µM [31]?
**A.** Its remaining binding at 10 µM is 99%.

**Q.** And the remaining binding at 10 µM [32]?
**A.** Its remaining binding at 10 µM is 100%.

**Q.** And the remaining binding at 10 µM [33]?
**A.** The remaining binding at 10 µM was 100%.

**Q.** And the remaining binding at 10 µM [34]?
**A.** The remaining binding at 10 µM was 100%.

**Q.** And the remaining binding at 10 µM [35]?
**A.** Its remaining binding at 10 µM is 100%.

**Q.** And the remaining binding at 10 µM [36]?
**A.** Its remaining binding at 10 µM is 100%.

**Q.** What about the remaining binding at 10 µM [37] of the same compound?
**A.** The remaining binding at 10 µM was 100%.
